Assay results published in PubChem BioAssay (NCI).
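Tested at 5 concentrations; 48 h exposure; 96-well plates; endpoints linearly interpolated, else capped at highest concentration. Abbreviation: GI50, concentration required for 50% inhibition of growth. TGI: concentration producing complete growth inhibition.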

Legend:
Assay in all cases: inhibition of tumour cell growth, NCI panel, 48 h
SK-OV-3 ovarian = test system: SK-OV-3 ovarian
KM12 colon = test system: KM12 colon
HS 578T breast = test system: HS 578T breast
ACHN renal = test system: ACHN renal
SN12C renal = test system: SN12C renal
HT29 colon = test system: HT29 colon
HCT-116 colon = test system: HCT-116 colon
OVCAR-5 ovarian = test system: OVCAR-5 ovarian
SK-MEL-5 melanoma = test system: SK-MEL-5 melanoma
NCI-H522 lung = test system: NCI-H522 lung
BT-549 breast = test system: BT-549 breast
SNB-19 CNS = test system: SNB-19 CNS
K-562 leukemia = test system: K-562 leukemia
SK-MEL-28 melanoma = test system: SK-MEL-28 melanoma
HOP-62 NSCLC = test system: HOP-62 NSCLC
OVCAR-4 ovarian = test system: OVCAR-4 ovarian
OVCAR-3 ovarian = test system: OVCAR-3 ovarian
MCF7 breast = test system: MCF7 breast
A549 NSCLC = test system: A549 NSCLC
NCI-H226 lung = test system: NCI-H226 lung
MOLT-4 leukemia = test system: MOLT-4 leukemia
CAKI-1 renal = test system: CAKI-1 renal
MDA-MB-468 breast = test system: MDA-MB-468 breast
T-47D breast = test system: T-47D breast
HOP-92 NSCLC = test system: HOP-92 NSCLC
LOX IMVI melanoma = test system: LOX IMVI melanoma
RXF 393 renal = test system: RXF 393 renal
DU-145 prostate = test system: DU-145 prostate
SNB-75 CNS = test system: SNB-75 CNS
786-0 renal = test system: 786-0 renal
PC-3 prostate = test system: PC-3 prostate
M14 melanoma = test system: M14 melanoma
COLO 205 colon = test system: COLO 205 colon
NCI-H23 lung = test system: NCI-H23 lung
UACC-62 melanoma = test system: UACC-62 melanoma
MALME-3M melanoma = test system: MALME-3M melanoma
SW-620 colon = test system: SW-620 colon
MDA-MB-435 = test system: MDA-MB-435
UO-31 renal = test system: UO-31 renal
U251 CNS = test system: U251 CNS
SF-539 CNS = test system: SF-539 CNS
A498 renal = test system: A498 renal
SF-295 CNS = test system: SF-295 CNS
NCI-H460 lung = test system: NCI-H460 lung
RPMI-8226 leukemia = test system: RPMI-8226 leukemia
SR leukemia = test system: SR leukemia
MDA-MB-231 breast = test system: MDA-MB-231 breast
IGROV1 ovarian = test system: IGROV1 ovarian
UACC-257 melanoma = test system: UACC-257 melanoma
CCRF-CEM leukemia = test system: CCRF-CEM leukemia
HCC-2998 colon = test system: HCC-2998 colon
OVCAR-8 ovarian = test system: OVCAR-8 ovarian
EKVX NSCLC = test system: EKVX NSCLC
HL-60(TB) leukemia = test system: HL-60(TB) leukemia
HCT-15 colon = test system: HCT-15 colon
SF-268 CNS = test system: SF-268 CNS
TK-10 renal = test system: TK-10 renal

Work on `CCCCSc1nc(NCCc2c[nH]c3ccccc23)c(C#N)c(-c2ccccc2)n1` yielded a GI50 (SK-OV-3 ovarian) of 22.4 µM, a TGI (SK-OV-3 ovarian) of 61.3 µM and a GI50 (KM12 colon) of 4.59 µM. For the same compound, the TGI (KM12 colon) was 18 µM, the GI50 (HS 578T breast) was 12.5 µM and the TGI (HS 578T breast) was 61.5 µM. It also gave a GI50 (ACHN renal) of 12.7 µM, a TGI (ACHN renal) of 28.5 µM and a GI50 (SN12C renal) of 12.7 µM. It also gave a TGI (SN12C renal) of 25.5 µM, a GI50 (HT29 colon) of 4.34 µM and a TGI (HT29 colon) of 16.4 µM. It also gave a GI50 (HCT-116 colon) of 3.82 µM, a TGI (HCT-116 colon) of 16.5 µM and a GI50 (OVCAR-5 ovarian) of 12.6 µM. For the same compound, the TGI (OVCAR-5 ovarian) was 26 µM, the GI50 (SK-MEL-5 melanoma) was 9.88 µM and the TGI (SK-MEL-5 melanoma) was 21.5 µM. For the same compound, the GI50 (NCI-H522 lung) was 15.5 µM, the TGI (NCI-H522 lung) was 32.5 µM and the GI50 (BT-549 breast) was 12.3 µM. For the same compound, the TGI (BT-549 breast) was 25.7 µM, the GI50 (SNB-19 CNS) was 17.2 µM and the TGI (SNB-19 CNS) was 34.6 µM. The GI50 (K-562 leukemia) was 4.91 µM, the TGI (K-562 leukemia) was greater than 100 µM and the GI50 (SK-MEL-28 melanoma) was 14.5 µM. It also gave a TGI (SK-MEL-28 melanoma) of 29.1 µM, a GI50 (HOP-62 NSCLC) of 12.8 µM and a TGI (HOP-62 NSCLC) of 29.7 µM. For the same compound, the GI50 (OVCAR-4 ovarian) was 11.8 µM, the TGI (OVCAR-4 ovarian) was 34.8 µM and the GI50 (OVCAR-3 ovarian) was 14.7 µM. For the same compound, the TGI (OVCAR-3 ovarian) was 29.1 µM, the GI50 (MCF7 breast) was 5.26 µM and the TGI (MCF7 breast) was 19.7 µM. For the same compound, the GI50 (A549 NSCLC) was 22 µM, the TGI (A549 NSCLC) was 82.3 µM and the GI50 (NCI-H226 lung) was 12.4 µM. The TGI (NCI-H226 lung) was 27.3 µM, the GI50 (MOLT-4 leukemia) was 5.73 µM and the TGI (MOLT-4 leukemia) was 78.8 µM. It also gave a GI50 (CAKI-1 renal) of 5.56 µM, a TGI (CAKI-1 renal) of 20.7 µM and a GI50 (MDA-MB-468 breast) of 5.3 µM. It also gave a TGI (MDA-MB-468 breast) of 18.8 µM, a GI50 (T-47D breast) of 3.78 µM and a TGI (T-47D breast) of 19.4 µM. The GI50 (HOP-92 NSCLC) was 5.54 µM, the TGI (HOP-92 NSCLC) was 25.4 µM and the GI50 (LOX IMVI melanoma) was 4.48 µM. The TGI (LOX IMVI melanoma) was 15.5 µM, the GI50 (RXF 393 renal) was 11.9 µM and the TGI (RXF 393 renal) was 25.8 µM. It also gave a GI50 (DU-145 prostate) of 14.1 µM, a TGI (DU-145 prostate) of 32.1 µM and a GI50 (SNB-75 CNS) of 14.1 µM. It also gave a TGI (SNB-75 CNS) of 47 µM, a GI50 (786-0 renal) of 10.5 µM and a TGI (786-0 renal) of 27 µM. It also gave a GI50 (PC-3 prostate) of 4.42 µM, a TGI (PC-3 prostate) of 37.9 µM and a GI50 (M14 melanoma) of 12.3 µM. The TGI (M14 melanoma) was 26.9 µM, the GI50 (COLO 205 colon) was 11.5 µM and the TGI (COLO 205 colon) was 29.5 µM. For the same compound, the GI50 (NCI-H23 lung) was 12.8 µM, the TGI (NCI-H23 lung) was 27.9 µM and the GI50 (UACC-62 melanoma) was 13.7 µM. The TGI (UACC-62 melanoma) was 26.6 µM, the GI50 (MALME-3M melanoma) was 17.7 µM and the TGI (MALME-3M melanoma) was 32.6 µM. For the same compound, the GI50 (SW-620 colon) was 6.48 µM, the TGI (SW-620 colon) was 23.3 µM and the GI50 (MDA-MB-435) was 13.7 µM. It also gave a TGI (MDA-MB-435) of 27.4 µM, a GI50 (UO-31 renal) of 14.6 µM and a TGI (UO-31 renal) of 34.3 µM. It also gave a GI50 (U251 CNS) of 11.4 µM, a TGI (U251 CNS) of 25.3 µM and a GI50 (SF-539 CNS) of 12.3 µM. The TGI (SF-539 CNS) was 27.2 µM, the GI50 (A498 renal) was 16.2 µM and the TGI (A498 renal) was 31.6 µM. The GI50 (SF-295 CNS) was 13.8 µM, the TGI (SF-295 CNS) was 29.8 µM and the GI50 (NCI-H460 lung) was 4.2 µM. The TGI (NCI-H460 lung) was 18.4 µM, the GI50 (RPMI-8226 leukemia) was 12.1 µM and the TGI (RPMI-8226 leukemia) was greater than 100 µM. The GI50 (SR leukemia) was 4.88 µM, the TGI (SR leukemia) was greater than 100 µM and the GI50 (MDA-MB-231 breast) was 11.1 µM. For the same compound, the TGI (MDA-MB-231 breast) was 25.4 µM, the GI50 (IGROV1 ovarian) was 16 µM and the TGI (IGROV1 ovarian) was 32.3 µM. It also gave a GI50 (UACC-257 melanoma) of 20.4 µM, a TGI (UACC-257 melanoma) of 47 µM and a GI50 (CCRF-CEM leukemia) of 5.38 µM. For the same compound, the TGI (CCRF-CEM leukemia) was greater than 100 µM, the GI50 (HCC-2998 colon) was 7.92 µM and the TGI (HCC-2998 colon) was 21.8 µM. The GI50 (OVCAR-8 ovarian) was 23.7 µM, the TGI (OVCAR-8 ovarian) was greater than 100 µM and the GI50 (EKVX NSCLC) was 10 µM. The TGI (EKVX NSCLC) was 32.4 µM, the GI50 (HL-60(TB) leukemia) was 16 µM and the TGI (HL-60(TB) leukemia) was 82.5 µM. It also gave a GI50 (HCT-15 colon) of 4.44 µM, a TGI (HCT-15 colon) of 16.9 µM and a GI50 (SF-268 CNS) of 14.6 µM. For the same compound, the TGI (SF-268 CNS) was 43.7 µM, the GI50 (TK-10 renal) was 26.1 µM and the TGI (TK-10 renal) was 54.7 µM.
